Series [1] can be described thus: Stability study of TA 2005 HFA solution formulation in MDI cans, 40° C. and 75% relative humidity. In kind it is physicochemical. The conditions noted are these: three months, mean of two cans. As to the method:
A formulation for delivering a nominal dose of 1 μg per actuation of TA 2005 was prepared with the composition as follows:
The formulation (120 actuations/canister, overage of 30 actuations) was filled in aluminium canisters having the internal surface coated with Teflon (two stage pressure filling) and fitted with a metering valve having a 63 μl metering chamber provided with a butyl rubber gasket as described in WO 03/078538 (Bespak) cited above. In particular, the gaskets were made of a bromobutyl rubber made of approximately 97% isobutylene and approximately 3% isoprene and having been polymerised by using an aluminium chloride catalyst and by treating the thus obtained isoprene-isobutylene rubber with bromine.
The same formulation was filled in the same kind of cans fitted with valves provided with EPDM rubber gaskets.
A stability study was carried out storing the formulation in upright and inverted cans at 40° C. and 75% relative humidity.
The stability test in Examples 1 and 2 was carried out both in upright and inverted cans. In inverted position, the formulation is in direct contact with the valve materials for all the duration of the test in order to detect possible chemical interactions with the valve materials that may negatively affect the stability of the active ingredient in the formulation. In upright cans the interactions between the valve materials and the formulation are very limited and so also the possible negative effects on the stability of the active ingredient in the formulation may be unnoticed.

For series [2] the following is noted: 4 μg/63 μl, stored upright at 5° C., teflon-coated aluminium canisters, EPDM gaskets, after nine months; cited from earlier work.

The structures appear in SMILES notation.

As to `COc1ccc(C[C@@H](C)NC[C@H](O)c2ccc(O)c3[nH]c(=O)ccc23)cc1.Cl` [TA 2005, 8-hydroxy-5-[(1R)-1-hydroxy-2-[[(1R)-2-(4-methoxyphenyl)-1-methylethyl]amino]ethyl]-2(1H)-quinolinone hydrochloride], the “percent amount of TA 2005” value in series [1] (inverted cans, EPDM rubber gaskets) is 77%; in series [1] (inverted cans, bromobutyl rubber gaskets), 97%; in series [1] (upright cans, EPDM rubber gaskets) it was 98%; in series [1] (upright cans, bromobutyl rubber gaskets) it was 98%. In addition, in series [2], the “TA 2005 assay” value is reported as “higher than 95%”.
